From US5252469A, “Process for producing a transglutaminase derived from streptomyces” (Amano Pharmaceutical Co., Ltd., priority 1990, dated 1993)
Read-outs that look alike come from different tables or passages of the source. Peptide text beside a SMILES is read from it. * marks the point of attachment. Cbz = O=C(OCc1ccccc1)*

How the values were obtained:
Assay type in all cases: biochemical
[1] = system: Enzyme No. 83 (transglutaminase of Streptomyces sp No. 83); assay: Influence of metal ions on transglutaminase activity; settings: for Activity of Enzyme No. 83 with metal ion (%): metal ion 1 mM in activity measurement system, None = 100, 10 min; for Effect of metal ion on activity of Enzyme No. 83 (in words): 1 mM, text says all BTGases
Method: (§1) Measurement of the activity of BTGase is carried out by performing a reaction using benzyloxycarbonyl-L-glutaminyl glycine and hydroxylamine as substrates in the absence of Ca^2+, forming an iron complex with the resulting hydroxamic acid in the presence of trichloroacetic acid, measuring absorption at 525 nm and determining the amount of hydroxamic acid by a calibration curve to calculate the activity. The BTGase activity is measured by the method described below, unless otherwise indicated.
(§2) To 0.05 ml of an enzyme solution is added 0.5 ml of Reagent A and they are mixed with each other. After reacting at 37° C. for 10 minutes, Reagent B is added thereto to discontinue the reaction and form an Fe complex. Thereafter, absorbance is measured at 525 nm. […] Separately, a calibration curve is prepared using L-glutamic acid γ-monohydroxamic acid instead of the enzyme solution, and the amount of hydroxamic acid produced is determined by the difference in absorbance described above. An enzyme activity which produces 1 μmol of hydroxamic acid per 1 minute is defined as 1 unit.

[2] = system: Enzyme No. 466 (transglutaminase of Streptomyces lavendulae No. 466); assay: as above; settings: for Activity of Enzyme No. 466 with metal ion (%): metal ion 1 mM in activity measurement system, None = 100, 10 min; for Effect of metal ion on activity of Enzyme No. 466 (in words): 1 mM, text says all BTGases
Method: as §1, §2

[3] = system: Enzyme No. 83 (transglutaminase of Streptomyces sp No. 83); assay: Substrate specificity: reaction of synthetic substrates with hydroxylamine; settings: for Substrate specificity, Enzyme No. 83 (reactivity of substrate with hydroxylamine): Table 6, synthetic substrate 5 mM; for Substrate specificity, Enzyme No. 83 (reactivity of substrate with hydroxylamine) / Substrate specificity (%), Enzyme No. 83: CBZ-Gln-Gly = 100; for Substrate specificity (%), Enzyme No. 83: Table 9; for Reactivity of synthetic substrate with Enzyme No. 83 (in words): substrate 5 mM, text says BTGase (both enzymes)
Method: as §1
(§3) To 0.05 ml of an enzyme solution is added 0.5 ml of Reagent A and they are mixed with each other. After reacting at 37° C. for 10 minutes, Reagent B is added thereto to discontinue the reaction and form an Fe complex. Thereafter, absorbance is measured at 525 nm. As a control, absorbance is measured after reacting a previously thermally inactivated enzyme solution in a similar manner and a difference in absorbance between the control and the enzyme solution is measured. Separately, a calibration curve is prepared using L-glutamic acid γ-monohydroxamic acid instead of the enzyme solution, and the amount of hydroxamic acid produced is determined by the difference in absorbance described above. An enzyme activity which produces 1 μmol of hydroxamic acid per 1 minute is defined as 1 unit.
(§4) Using each BTGase, reactions of various synthetic substrates with hydroxylamine were examined. […] In this case, the concentration of various synthetic substrates is 5 mM. In the table, CBZ, Gln, Gly and Asn are abbreviations for benzyloxycarbonyl group, glutaminyl group, glycyl group and asparaginyl group, respectively.

[4] = system: Enzyme No. 466 (transglutaminase of Streptomyces lavendulae No. 466); assay: as above; settings: for Substrate specificity, Enzyme No. 466 (reactivity of substrate with hydroxylamine): Table 6, synthetic substrate 5 mM; for Substrate specificity, Enzyme No. 466 (reactivity of substrate with hydroxylamine) / Substrate specificity (%), Enzyme No. 466: CBZ-Gln-Gly = 100; for Substrate specificity (%), Enzyme No. 466: Table 9; for Reactivity of synthetic substrate with Enzyme No. 466 (in words): substrate 5 mM, text says BTGase (both enzymes)
Method: as §1, §3, §4

[5] = target: T1, MTGase (transglutaminase of guinea pig liver) (UniProt P08587); assay: as above; settings: Table 9; CBZ-Gln-Gly = 100
T1 construct: The guinea pig liver-derived transglutaminase was prepared by the method described in Connellan et al; from tissue; host or cells: guinea pig liver
T1 sequence (P08587 2-690 limits assumed): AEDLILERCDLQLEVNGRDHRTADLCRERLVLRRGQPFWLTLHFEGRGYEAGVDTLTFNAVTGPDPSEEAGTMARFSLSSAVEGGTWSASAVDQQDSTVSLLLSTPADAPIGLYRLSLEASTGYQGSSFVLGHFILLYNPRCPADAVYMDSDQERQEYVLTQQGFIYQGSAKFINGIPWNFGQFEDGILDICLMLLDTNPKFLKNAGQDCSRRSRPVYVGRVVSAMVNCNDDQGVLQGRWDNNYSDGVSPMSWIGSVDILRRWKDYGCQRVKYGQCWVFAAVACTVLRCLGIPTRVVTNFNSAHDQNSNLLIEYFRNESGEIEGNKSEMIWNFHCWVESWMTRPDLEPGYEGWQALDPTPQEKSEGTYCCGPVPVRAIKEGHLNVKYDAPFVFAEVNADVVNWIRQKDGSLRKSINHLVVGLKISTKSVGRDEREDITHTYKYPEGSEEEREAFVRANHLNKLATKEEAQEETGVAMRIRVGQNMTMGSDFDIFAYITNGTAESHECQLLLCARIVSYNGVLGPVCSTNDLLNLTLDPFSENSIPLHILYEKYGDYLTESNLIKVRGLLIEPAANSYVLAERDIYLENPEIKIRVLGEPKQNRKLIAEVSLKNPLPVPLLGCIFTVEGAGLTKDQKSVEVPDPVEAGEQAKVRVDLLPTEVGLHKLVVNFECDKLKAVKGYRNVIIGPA
Method: as §1, §3, §4
Next, properties of BTGases are compared to those of guinea pig liver-derived transglutaminase. The guinea pig liver-derived transglutaminase was prepared by the method described in Connellan et al., Journal of Biological Chemistry, Vol. 246, No. 4, pp. 1093-1098 (1971). As will be apparent from Tables 9 and 10, various differences in enzymological properties are noted between transglutaminase of guinea pig liver (hereafter, referred to as MTGase) which has been mainly investigated heretofore and BTGases derived from the genus Streptomyces: in particular, differences are noted in temperature stability, molecular weight, isoelectric point and substrate specificity. Further, a difference is noted in that the BTGases of the present invention act in the presence and absence of Ca^2+. Therefore, the respective enzymes of the present invention are different from MTGase in their properties.

[6] = system: Enzyme No. 83 (transglutaminase of Streptomyces sp No. 83)
Method: as §1, §2
(§5) Each inhibitor was added in a concentration of 1 mM.

[7] = system: Enzyme No. 466 (transglutaminase of Streptomyces lavendulae No. 466)
Method: as §1, §2, §5

[8] = 1 mM, 25° C. for 30 minutes, text says all BTGases
[9] = inhibitor 1 mM, 25° C. for 30 minutes, None = 100

[Ba+2].[Cl-].[Cl-] [BaCl2]
Activity of Enzyme No. 83 with metal ion (%) [1]: 100% | Activity of Enzyme No. 466 with metal ion (%) [2]: 100%

NC(=O)C[C@H](NC(=O)OCc1ccccc1)C(=O)NCC(=O)O [CBZ--Asn--Gly, benzyloxycarbonylasparaginyl glycine] (Cbz-Asn-Gly-OH)
Substrate specificity, Enzyme No. 83 (reactivity of substrate with hydroxylamine) [3]: 0 | Substrate specificity (%), Enzyme No. 83 [3]: 0% | Reactivity of synthetic substrate with Enzyme No. 83 (in words) [3]: No BTGase reacts | Substrate specificity, Enzyme No. 466 (reactivity of substrate with hydroxylamine) [4]: 0 | Substrate specificity (%), Enzyme No. 466 [4]: 0% | Reactivity of synthetic substrate with Enzyme No. 466 (in words) [4]: No BTGase reacts | Substrate specificity (%), MTGase [5]: 0%

NC(=O)CC[C@H](NC(=O)OCc1ccccc1)C(=O)O [CBZ--Gln, benzyloxycarbonyl glutamine]
Substrate specificity, Enzyme No. 83 (reactivity of substrate with hydroxylamine) [3]: 0 | Substrate specificity (%), Enzyme No. 83 [3]: 0% | Reactivity of synthetic substrate with Enzyme No. 83 (in words) [3]: No BTGase reacts | Substrate specificity, Enzyme No. 466 (reactivity of substrate with hydroxylamine) [4]: 0 | Substrate specificity (%), Enzyme No. 466 [4]: 0% | Reactivity of synthetic substrate with Enzyme No. 466 (in words) [4]: No BTGase reacts | Substrate specificity (%), MTGase [5]: 0%

NC(=O)CC[C@H](NC(=O)OCc1ccccc1)C(=O)N[C@@H](CCC(N)=O)C(=O)NCC(=O)O [CBZ--Gln--Gln--Gly] (Cbz-Gln-Gln-Gly-OH)
Substrate specificity, Enzyme No. 83 (reactivity of substrate with hydroxylamine) [3]: 49 | Substrate specificity (%), Enzyme No. 83 [3]: 49% | Substrate specificity, Enzyme No. 466 (reactivity of substrate with hydroxylamine) [4]: 35 | Substrate specificity (%), Enzyme No. 466 [4]: 35% | Substrate specificity (%), MTGase [5]: 288%

NC(=O)CC[C@H](NC(=O)OCc1ccccc1)C(=O)NCC(=O)O [CBZ--Gln--Gly, benzyloxycarbonylglutaminyl glycine] (Cbz-Gln-Gly-OH)
Substrate specificity, Enzyme No. 83 (reactivity of substrate with hydroxylamine) [3]: 100 | Substrate specificity (%), Enzyme No. 83 [3]: 100% | Reactivity of synthetic substrate with Enzyme No. 83 (in words) [3]: highest | Substrate specificity, Enzyme No. 466 (reactivity of substrate with hydroxylamine) [4]: 100 | Substrate specificity (%), Enzyme No. 466 [4]: 100% | Reactivity of synthetic substrate with Enzyme No. 466 (in words) [4]: highest | Substrate specificity (%), MTGase [5]: 100%

CCOC(=O)CNC(=O)[C@H](CCC(N)=O)NC(=O)OCc1ccccc1 [CBZ--Gln--Gly--OEt] (Cbz-Gln-Gly-OEt)
Substrate specificity, Enzyme No. 83 (reactivity of substrate with hydroxylamine) [3]: 61 | Substrate specificity (%), Enzyme No. 83 [3]: 61% | Substrate specificity, Enzyme No. 466 (reactivity of substrate with hydroxylamine) [4]: 65 | Substrate specificity (%), Enzyme No. 466 [4]: 65% | Substrate specificity (%), MTGase [5]: 122%

NC(=O)CC[C@H](NC(=O)CNC(=O)OCc1ccccc1)C(=O)NCC(=O)NCC(=O)O [CBZ--Gly--Gln--Gly--Gly] (Cbz-GQGG-OH)
Substrate specificity, Enzyme No. 83 (reactivity of substrate with hydroxylamine) [3]: 10 | Substrate specificity (%), Enzyme No. 83 [3]: 10% | Substrate specificity, Enzyme No. 466 (reactivity of substrate with hydroxylamine) [4]: 18 | Substrate specificity (%), Enzyme No. 466 [4]: 18% | Substrate specificity (%), MTGase [5]: 126%

[Cl-].[Cl-].[Co+2] [CoCl2]
Activity of Enzyme No. 83 with metal ion (%) [1]: 100% | Activity of Enzyme No. 466 with metal ion (%) [2]: 98%

[Cl][Cu][Cl] [CuCl2]
Effect of metal ion on activity of Enzyme No. 83 (in words) [1]: inhibited | Activity of Enzyme No. 83 with metal ion (%) [1]: 89% | Effect of metal ion on activity of Enzyme No. 466 (in words) [2]: inhibited | Activity of Enzyme No. 466 with metal ion (%) [2]: 90%

O=C(O)CN(CCN(CC(=O)O)CC(=O)O)CC(=O)O [EDTA]
Activity of Enzyme No. 83 with inhibitor [6]: 103 | Activity of Enzyme No. 466 with inhibitor [7]: 108

[Cl][Fe]([Cl])[Cl] [FeCl3]
Activity of Enzyme No. 83 with metal ion (%) [1]: 93% | Activity of Enzyme No. 466 with metal ion (%) [2]: 97%

[Cl-].[K+] [KCl]
Activity of Enzyme No. 83 with metal ion (%) [1]: 104%

O=C(O)CI [Monoiodoacetic acid, monoiodoacetic acid]
Activity of Enzyme No. 83 with inhibitor [6]: 92 | Effect of inhibitor on activity of Enzyme No. 83 (in words) [6]: inhibited | Activity of Enzyme No. 466 with inhibitor [7]: 87 | Effect of inhibitor on activity of Enzyme No. 466 (in words) [7]: inhibited

CCN1C(=O)C=CC1=O [NEM, N-ethylmaleimide]
Effect of inhibitor on activity of Enzyme No. 83 (in words) [6, 8]: inhibited | Activity of Enzyme No. 83 with inhibitor [6, 9]: 10 | Effect of inhibitor on activity of Enzyme No. 466 (in words) [7, 8]: inhibited | Activity of Enzyme No. 466 with inhibitor [7, 9]: 5

[Cl-].[Na+] [NaCl]
Activity of Enzyme No. 83 with metal ion (%) [1]: 102% | Activity of Enzyme No. 466 with metal ion (%) [2]: 98%

O=C(O)c1cc[c]([Hg][Cl])cc1 [PCMB, p-chloromercury benzoic acid]
Effect of inhibitor on activity of Enzyme No. 83 (in words) [6, 8]: inhibited | Activity of Enzyme No. 83 with inhibitor [6, 9]: 86 | Effect of inhibitor on activity of Enzyme No. 466 (in words) [7, 8]: inhibited | Activity of Enzyme No. 466 with inhibitor [7, 9]: 28

O=S(=O)(F)Cc1ccccc1 [PMSF, phenylmethylsulfonyl fluoride]
Activity of Enzyme No. 83 with inhibitor [6, 9]: 101 | Activity of Enzyme No. 466 with inhibitor [7, 9]: 103

[Cl][Pb][Cl] [PbCl2]
Effect of metal ion on activity of Enzyme No. 83 (in words) [1]: inhibited | Activity of Enzyme No. 83 with metal ion (%) [1]: 59% | Effect of metal ion on activity of Enzyme No. 466 (in words) [2]: inhibited | Activity of Enzyme No. 466 with metal ion (%) [2]: 32%

[Cl-].[Cl-].[Sr+2] [SrCl2]
Activity of Enzyme No. 83 with metal ion (%) [1]: 100% | Activity of Enzyme No. 466 with metal ion (%) [2]: 97%

[Cl-].[Cl-].[Zn+2] [ZnCl2]
Effect of metal ion on activity of Enzyme No. 83 (in words) [1]: inhibited | Activity of Enzyme No. 83 with metal ion (%) [1]: 36% | Effect of metal ion on activity of Enzyme No. 466 (in words) [2]: inhibited | Activity of Enzyme No. 466 with metal ion (%) [2]: 10%
